The target of experiment [1] is T1, cytoplasmic kinase domain of human IGF-1R (IGF-1R-GST) (Homo sapiens, UniProt P08069).
T1 construct: cytoplasmic kinase domain of human IGF-1R (amino acids 964-1370); GST (glutathione-S-transferase); made in house; host or cells: High Five insect cells (Invitrogen)
Kind of experiment: Insulin-like growth factor-1 receptor (IGF-1R) kinase assay (DELFIA). The experiment is classed as biochemical. Particulars: IGF-1R-GST kinase activity, read-out: IGF1R IC50. The procedure, abridged:
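GST-tagged IGF-1R cytoplasmic kinase domain phosphorylates pEY with biotinylated pEY for 40 min at RT; EDTA stop. Product captured on streptavidin, detected with europium anti-phosphotyrosine antibody by DELFIA time-resolved fluorescence; IC50 from inhibition curves.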

Experiment [2] deals with TC-71 (Ewing's sarcoma) cells. Kind of experiment: Cell proliferation assay, TC-71 (Alamar Blue). It is filed as cell-based. Particulars: 72 h with compound, EC50 ranges as class symbols. How it is done:
Cell Proliferation Assays
Compounds were tested for their anti-proliferative effects in the TC-71 (Ewing's sarcoma) and HCT 116 (colorectal carcinoma) cancer cell lines in vitro. Published scientific data has described that interference with the Insulin-like Growth Factor-1 Receptor (IGF-1R) signaling pathway reduces the proliferation of TC-71 cells. Therefore TC-71 cells served as a positive control cell line for monitoring the activity of compounds against IGF-1R-mediated cell proliferation. […] Therefore the HCT 116 cell line served as a negative control.
2000 TC-71 cells or 1000 HCT 116 cells were seeded per well in 180 μL IMDM+10% foetal calf serum (FCS)+ penicillin/streptomycin into 96-well microtitre plates. The plates were placed in a cell culture incubator (37° C. in a humidified atmosphere of […]/5 CO2) overnight. The following day, serial dilutions of compounds, prepared in duplicates, were transferred onto the cell layers (controls without compound). The cells were cultivated for a further 72 h in the cell culture incubator. 20 μL of Alamar Blue™ (Serotec Ltd, Düsseldorf, Germany) was added to each well and the plates incubated for 7 h in the cell culture incubator. Fluorescence (extinction wavelength of 544 nm and emission at 590 nm) was then measured and the normalized data fitted by iterative calculation with a sigmoidal curve analysis program (Graph Pad Prism) with a variable Hill slope to determine the IC50 values.

Molecules are shown by their SMILES.

T1 sequence (P08069 964-1367 limits assumed): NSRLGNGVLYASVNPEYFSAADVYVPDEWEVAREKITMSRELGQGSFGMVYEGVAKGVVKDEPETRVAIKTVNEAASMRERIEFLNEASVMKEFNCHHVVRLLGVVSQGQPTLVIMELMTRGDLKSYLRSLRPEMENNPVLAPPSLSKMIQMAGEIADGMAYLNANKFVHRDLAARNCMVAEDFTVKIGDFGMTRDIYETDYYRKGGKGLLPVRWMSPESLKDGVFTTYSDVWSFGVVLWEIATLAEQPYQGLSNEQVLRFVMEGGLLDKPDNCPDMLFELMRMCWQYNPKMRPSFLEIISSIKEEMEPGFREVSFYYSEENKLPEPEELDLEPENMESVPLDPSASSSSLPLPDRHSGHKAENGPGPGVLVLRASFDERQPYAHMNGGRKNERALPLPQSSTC

On to `CC1(C)C(=O)Nc2cccc(CNc3nc(Nc4ccc(C5CCCNC5)cc4)ncc3Br)c21` (racemic) [Example I-238], for which the IC50 (in general, the midpoint of a concentration-inhibition curve) in experiment [1] worked out at 1 nM. Besides, in experiment [2], the EC50 (as a rule, the concentration at which the effect is half-maximal) is 50 to 250 nM.
On the same counts, the results for `CNC1(C(=O)N2CCCC(c3ccc(Nc4ncc(Br)c(NCc5cccc6c5C(C)(C)C(=O)N6)n4)c(C)c3)C2)CC1` (racemic) [Example I-291] are 6 nM and 50 to 250 nM.
On to `COc1cc(C2CCCN(CC(C)(C)O)C2)ccc1Nc1ncc(C(F)(F)F)c(NCc2cccc3c2C(C)(C)C(=O)N3)n1` (racemic) [Example I-301], for which the IC50 in experiment [1] is 1.6 nM. Moreover, in experiment [2], the EC50 is less than 50 nM.
On the same counts, the results for `Cc1cc(C2CCCN(CC(C)(C)O)C2)ccc1Nc1ncc(C(F)(F)F)c(NCc2cccc3c2C(C)(C)C(=O)N3)n1` (racemic) [Example I-306] are 1 nM and less than 50 nM.
For `Cc1cc(C2CCCN(CC(O)C(F)(F)F)C2)ccc1Nc1ncc(Br)c(NCc2cccc3c2C(C)(C)C(=O)N3)n1` (racemic) [Example I-316], in that order: 2 nM and 50 to 250 nM.
For `Cc1cc(C2CCCN(CC(C)(C)O)C2)ccc1Nc1ncc(Br)c(NCc2cccc3c2C(C)(C)C(=O)N3)n1` (racemic) [Example I-318], in that order: 0.4 nM and less than 50 nM.
For `COc1cc(C2CCCN(CC(C)(C)O)C2)ccc1Nc1ncc(Br)c(NCc2cccc3c2C(C)(C)C(=O)N3)n1` (racemic) [Example I-322], in experiment [1], the 50% inhibitory concentration (IC50) turned out to be 0.5 nM. Moreover, the EC50 in experiment [2] is less than 50 nM.
On the same counts, the results for `CC1(C)C(=O)Nc2cccc(CNc3nc(Nc4ccc(C5CCCN(CC(O)C(F)(F)F)C5)cc4)ncc3Br)c21` (racemic) [Example I-325] are 2 nM and 50 to 250 nM.
On the same counts, the results for `COc1cc(C2CCCN(CC(C)(C)O)C2)ccc1Nc1ncc(Cl)c(NCc2cccc3c2C(C)(C)C(=O)N3)n1` (racemic) [Example I-327] are 1 nM and less than 50 nM.
Turning to `Cc1cc(C2CCCN(CC(C)(C)O)C2)ccc1Nc1ncc(Cl)c(NCc2cccc3c2C(C)(C)C(=O)N3)n1` (racemic) [Example I-328], in experiment [1], the IC50 worked out at 1 nM. For the same compound, the EC50 in experiment [2] is less than 50 nM.
On to `COc1cc(C2CCCN(CCO)C2)ccc1Nc1ncc(Br)c(NCc2cccc3c2C(C)(C)C(=O)N3)n1` (racemic) [Example I-361], for which, in experiment [2], the EC50 was less than 50 nM.
For `CNC1CCN(c2ccc(Nc3ncc(C(F)(F)F)c(NCc4cccc5c4CC(=O)N5)n3)c(OC)c2)CC1` [Example I-187], the IC50 in experiment [1] is 4 nM.
As for `COc1cc(N2CCC(N3CCC(O)CC3)CC2)ccc1Nc1ncc(C(F)(F)F)c(NCc2cccc3c2CC(=O)N3)n1` [Example I-188], the IC50 in experiment [1] was 5 nM.
On to `COc1cc(N2CCC(N3CCCC3)CC2)ccc1Nc1ncc(C(F)(F)F)c(NCc2cccc3c2CC(=O)N3)n1` [Example I-189], for which the IC50 in experiment [1] amounted to 5 nM.
As for `COc1cc(N2CCC(N3CCN(C4CC4)CC3)CC2)ccc1Nc1ncc(C(F)(F)F)c(NCc2cccc3c2CC(=O)N3)n1` [Example I-190], in experiment [1], the IC50 stood at 6 nM.
Same read-out and setting: with `COc1cc(N2CCC(NCCO)CC2)ccc1Nc1ncc(C(F)(F)F)c(NCc2cccc3c2CC(=O)N3)n1` [Example I-191] the figure was 6 nM; with `COc1cc(N2CCC(N3CCC(OC)CC3)CC2)ccc1Nc1ncc(C(F)(F)F)c(NCc2cccc3c2CC(=O)N3)n1` [Example I-192], 6 nM; with `COc1cc(N2CCC(N3CCN(C4CCN(C)CC4)CC3)CC2)ccc1Nc1ncc(C(F)(F)F)c(NCc2cccc3c2CC(=O)N3)n1` [Example I-193], 7 nM.
Still for that read-out and setting: with `COc1cc(N2CCC(NCCN(C)C)CC2)ccc1Nc1ncc(C(F)(F)F)c(NCc2cccc3c2CC(=O)N3)n1` [Example I-194] the figure was 7 nM.
As to `COc1cc(N2CCC(N3CCC(C#N)CC3)CC2)ccc1Nc1ncc(C(F)(F)F)c(NCc2cccc3c2CC(=O)N3)n1` [Example I-195], in experiment [1], the IC50 amounted to 7 nM.
Same read-out and setting: under `COc1cc(N2CCC(N3CCOCC3)CC2)ccc1Nc1ncc(C(F)(F)F)c(NCc2cccc3c2CC(=O)N3)n1` [Example I-196] stands 8 nM; under `COCCN(C)C1CCN(c2ccc(Nc3ncc(C(F)(F)F)c(NCc4cccc5c4CC(=O)N5)n3)c(OC)c2)CC1` [Example I-197], 9 nM.
Turning to `COc1cc(N2CCC(N3CCN(C(C)C)CC3)CC2)ccc1Nc1ncc(C(F)(F)F)c(NCc2cccc3c2CC(=O)N3)n1` [Example I-198], the IC50 in experiment [1] amounted to 11 nM.
On the same count and under the same terms, under `COc1cc(N2CCC(N3CCC(F)(F)CC3)CC2)ccc1Nc1ncc(C(F)(F)F)c(NCc2cccc3c2CC(=O)N3)n1` [Example I-199] stands 11 nM; under `COc1cc(N2CCC(N3CCN(C4CCOCC4)CC3)CC2)ccc1Nc1ncc(C(F)(F)F)c(NCc2cccc3c2CC(=O)N3)n1` [Example I-200], 13 nM.
Take `COc1cc(N2CCC(N3CCN(C(C)=O)CC3)CC2)ccc1Nc1ncc(C(F)(F)F)c(NCc2cccc3c2CC(=O)N3)n1` [Example I-201]: in experiment [1], the IC50 is 20 nM.
For the compound `COc1cc(N2CCC(N3CCN(C)CC3)CC2)ccc1Nc1ncc(C(F)(F)F)c(NCc2cccc3c2CC(=O)N3)n1` [Example I-202], the IC50 in experiment [1] was 24 nM.
For the compound `CC1(C)C(=O)Nc2cccc(CNc3nc(Nc4ccc(C5CCN(CCO)CC5)cc4)ncc3Cl)c21` [Example I-205], the IC50 in experiment [1] amounted to 2 nM.
For `CNC(=O)CN1CCC(c2ccc(Nc3ncc(Cl)c(NCc4cccc5c4C(C)(C)C(=O)N5)n3)cc2)CC1` [Example I-206], the IC50 in experiment [1] came out at 5 nM.
On the same count and under the same terms, with `CC1(C)C(=O)Nc2cccc(CNc3nc(Nc4ccc(C5CCN(CCS(C)(=O)=O)CC5)cc4)ncc3Cl)c21` [Example I-207] the figure was 10 nM; with `CNC(=O)CN1CCC(c2ccc(Nc3ncc(Cl)c(NCc4cccc5c4C(C)(C)C(=O)N5)n3)c(C)c2)CC1` [Example I-219], 2 nM; with `COc1cc(N2CCN(CCF)CC2)ccc1Nc1ncc(C(F)(F)F)c(NCc2cccc3c2CC(=O)N3)n1` [Example I-222], 32 nM.
With `COc1cc(N2CCN(CCO)CC2)ccc1Nc1ncc(C(F)(F)F)c(NCc2cccc3c2CC(=O)N3)n1` [Example I-223], in experiment [1], the IC50 amounted to 18 nM.
On the same count and under the same terms, under `COCCN1CCN(c2ccc(Nc3ncc(C(F)(F)F)c(NCc4cccc5c4CC(=O)N5)n3)c(OC)c2)CC1` [Example I-224] stands 18 nM.
Take `CCN1CCC(NC(=O)c2ccc(Nc3ncc(C(F)(F)F)c(NCc4cccc5c4C(C)(C)C(=O)N5)n3)c(OC)c2)CC1` [Example I-225]: the IC50 in experiment [1] is 2 nM.
`COc1cc(N2CCC(C(=O)NC3CCN(C)CC3)CC2)ccc1Nc1ncc(C(F)(F)F)c(NCc2cccc3c2C(C)(C)C(=O)N3)n1` [Example I-226]: the IC50 in experiment [1] came to 2 nM.
The same measure, in the same setting: under `CNC(=O)C1CCN(c2ccc(Nc3ncc(C(F)(F)F)c(NCc4cccc5c4C(C)(C)C(=O)N5)n3)c(OC)c2)CC1` [Example I-227] stands 5 nM.
Turning to `COc1cc(C(=O)NC2CCN(C)CC2)ccc1Nc1ncc(C(F)(F)F)c(NCc2cccc3c2C(C)(C)C(=O)N3)n1` [Example I-228], the IC50 in experiment [1] came to 8 nM.
Regarding `CCN1CCC(NC(=O)c2ccc(Nc3ncc(C(F)(F)F)c(NCc4cccc5c4CC(=O)N5)n3)c(OC)c2)CC1` [Example I-229], the IC50 in experiment [1] came to 12 nM.
On the same count and under the same terms, with `COc1cc(N2CCC(C(=O)N(C)C)CC2)ccc1Nc1ncc(C(F)(F)F)c(NCc2cccc3c2C(C)(C)C(=O)N3)n1` [Example I-230] the figure was 13 nM; with `COc1cc(C(=O)NC2CCN(C)CC2)ccc1Nc1ncc(C(F)(F)F)c(NCc2cccc3c2C(C)(C)C(=O)N3C)n1` [Example I-231], 15 nM.
On the same count and under the same terms, with `COc1cc(C(=O)NCCN2CCCC2)ccc1Nc1ncc(C(F)(F)F)c(NCc2cccc3c2CC(=O)N3)n1` [Example I-232] the figure was 47 nM.
On the same count and under the same terms, with `CCC1(CC)C(=O)Nc2cccc(CNc3nc(Nc4ccc(C(=O)NC5CCN(C)CC5)cc4OC)ncc3C(F)(F)F)c21` [Example I-233] the figure was 58 nM.
As to `COc1cc(C(=O)N2CCOCC2)ccc1Nc1ncc(C(F)(F)F)c(NCc2cccc3c2C(C)(C)C(=O)N3)n1` [Example I-234], in experiment [1], the IC50 worked out at 8 nM.
On the same count and under the same terms, under `COc1cc(N2CCC(O)CC2)ccc1Nc1ncc(C(F)(F)F)c(NCc2cccc3c2CC(=O)N3)n1` [Example I-237] stands 21 nM.
`COc1cc(N2CCNCC2)ccc1Nc1ncc(Cl)c(NCc2cccc3c2C(C)(C)C(=O)N3)n1` [Example I-254]: the IC50 in experiment [1] is 2.2 nM.
In the case of `CC(C)(O)CN1CCC(c2ccc(Nc3ncc(C(F)(F)F)c(NCc4cccc5c4C(C)(C)C(=O)N5)n3)c3c2OCO3)CC1` [Example I-315], the IC50 in experiment [1] came out at 1.9 nM.
In the case of `Cc1cc(C2CCN(CC(C)(C)O)CC2)c(C)cc1Nc1ncc(Cl)c(NCc2cccc3c2C(C)(C)C(=O)N3)n1` [Example I-338], the concentration giving a half-maximal response (EC50) in experiment [2] lay in the range of 250 to 3000 nM.
The same measure, in the same setting: with `CNC(=O)CN1CCC(c2ccc(Nc3ncc(Cl)c(NCc4cccc5c4C(C)(C)C(=O)N5)n3)c(C)c2)CC1` [Example I-370] the figure was less than 50 nM.

The values above are taken from patent US8546443B2, “Benzylic oxindole pyrimidines” (Boehringer Ingelheim International GmbH, priority 2010, dated 2013).
